Measured values from publication PMC9841533, “Microtubule-Stabilizing 1,2,4-Triazolo[1,5-a]pyrimidines as Candidate Therapeutics for Neurodegenerative Disease: Matched Molecular Pair Analyses and Computational Studies Reveal New Structure–Activity Insights” (Journal of Medicinal Chemistry, 2022).
Where a name gives a salt, the structure may show the parent alone. Read-outs that look alike come from different tables or passages of the source.

Key:
[1] = tested on: acetylated α-tubulin (AcTub) levels in QBI293 cells; assay: QBI293 cell assay of MT stabilization: acetylated α-tubulin ELISA; assay type: cell-based
Description: (§1) All test compounds were initially screened in the same cell-based (QBI293) assay of MT stabilization used in our previous SAR studies[11],[12] so as to allow direct comparison with literature data. Changes in levels of acetylated α-tubulin (AcTub) and total α-tubulin (α-Tub), relative to vehicle-treated negative control cells, were determined after 4 h of incubation with test compounds at 1 and 10 μM. To account for possible day-to-day differences in the responsiveness of cells to MT-stabilizing treatment, compound-dependent changes in AcTub levels relative to DMSO-treated cells were also normalized to the corresponding changes caused by 100 nM of 5 that was used as a positive control. In addition, docking studies, binding free energy calculations, and in selected cases, molecular dynamic simulations were conducted using an X-ray structure of the vinca and seventh sites (PDB: 5NJH,[10]7CLD[13]). […] For selected compounds, additional studies included testing in the QBI293 cell AcTub assay at additional compound concentrations, and/or evaluation of test compounds for their ability to prevent MT collapse in primary neuron cultures treated with the phosphatase inhibitor, okadaic […] (OA). Finally, cytotoxicity studies in QBI293 and HeLa cells were also conducted for representative examples (Supporting Information).
(§2) Compound-induced changes in acetylated-tubulin and α-tubulin in QBI293 cells or primary mouse or rat neurons were as previously described.[11],[12] […] The plated cells were incubated overnight, after which the medium was aspirated and fresh medium containing vehicle (0.25–0.3% DMSO) or test compound was added. Test compounds were prepared as 4–20 mM stock solutions in 100% DMSO, and these were diluted in culture medium prior to addition to the QBI293 cells. After 4 h incubation, whole-cell extracts were prepared from the QBI293 cells as described[11] and the supernatant fraction from each sample was assessed for protein content by bicinchoninic acid (BCA) assay. The amount of acetyl-tubulin (AcTub) and α-tubulin (αTub) within the cell extract samples was quantified using specific enzyme-linked immunosorbent assays (ELISA), as previously described.[11] Acetyl-tubulin levels were determined in a similar manner in rat or mouse cortical neuron cultures in which embryonic dissociated cortical neurons were plated at 3 × 10^5 cells/well in poly-D-lysine-coated 12-well plates, essentially as previously described.[11] […] Culture homogenates were prepared for the determination of AcTub levels by ELISA as previously described.[11]

[2] = tested on: total α-tubulin (α-Tub) levels in QBI293 cells; assay: QBI293 cell assay: total α-tubulin ELISA; assay type: cell-based
Description: as §1, §2

[3] = 4 h, 1 uM compound, read-out: AcTub (1uM)
[4] = 4 h, 10 uM compound, read-out: AcTub (10 uM)
[5] = 4 h incubation, 1 μM, read-out: AcTub 1 μM, fold-change compared to vehicle (DMSO)-treated cells
[6] = 4 h incubation, 10 μM, read-out: AcTub 10 μM, fold-change compared to vehicle (DMSO)-treated cells
[7] = 4 h, 1 uM compound, read-out: AlfaTub (1uM)
[8] = 4 h, 10 uM compound, read-out: AlfaTub (10 uM)
[9] = 4 h incubation, 1 μM, read-out: α-Tub 1 μM, fold-change compared to vehicle (DMSO)-treated cells
[10] = 4 h incubation, 10 μM, read-out: α-Tub 10 μM, fold-change compared to vehicle (DMSO)-treated cells

SMILES | AcTub (1 uM - normalized) ([1]; 1 uM compound) | AcTub (10 uM - normalized) ([1]; 10 uM compound) | fold induction at 1 µM [1, 3] | fold induction at 10 µM [1, 4] | AcTub 1 μM, fold-change compared to positive control compound 5 (100 nM) (in parentheses) ([1]; 4 h incubation, 1 μM) | fold induction at 1 µM [1, 5] | AcTub 10 μM, fold-change compared to positive control compound 5 (100 nM) (in parentheses) ([1]; 4 h incubation, 10 μM) | fold induction at 10 µM [1, 6] | fold induction at 1 µM [2, 7] | fold induction at 10 µM [2, 8] | fold induction at 1 µM [2, 9] | fold induction at 10 µM [2, 10]
Fc1cc(F)c(-c2c(Cl)nc3ncnn3c2NCC2CCC2)c(F)c1 [Compound 15, 5-Chloro-N-(cyclobutylmethyl)-6-(2,4,6-trifluorophenyl)-[1,2,4]triazolo[1,5-a]pyrimidin-7-amine] | 0.22 | 0.44 | 1.55 | 3.08 | 0.22 fold-change | 1.55 ± 0.03 | 0.44 fold-change | 3.08 ± 0.03 | 1.07 | 0.96 | 1.07 ± 0.01 | 0.96 ± 0.03
CNCC#Cc1cc(F)c(-c2c(Cl)nc3ncnn3c2N[C@H](C)C(C)C)c(F)c1 [Compound 51, (R)-5-Chloro-6-(2,6-difluoro-4-(3-(methylamino)prop-1-yn-1-yl)phenyl)-N-(3-methylbutan-2-yl)-[1,2,4]triazolo[1,5-a]pyrimidin-7-amine Hydrochloride] | 0.27 | 0.79 | 1.98 | 5.92 | 0.27 fold-change | 1.98 ± 0.09 | 0.79 fold-change | 5.92 ± 0.14 | 0.96 | 0.96 | 0.96 ± 0.01 | 0.96 ± 0.03
CC(C)[C@@H](C)Nc1c(-c2c(F)cc(C#CCCN(C)C)cc2F)c(Cl)nc2ncnn12 [Compound 52, (R)-5-Chloro-6-(4-(4-(dimethylamino)but-1-yn-1-yl)-2,6-difluorophenyl)-N-(3-methylbutan-2-yl)-[1,2,4]triazolo[1,5-a]pyrimidin-7-amine 2,2,2-Trifluoroacetate] | 1.75 | 1.24 | 9.5 | 6.7 | 1.75 fold-change | 9.5 ± 0.22 | 1.24 fold-change | 6.7 ± 0.5 | 1 | 1.15 | 1 ± 0.02 | 1.15 ± 0.02
C[C@@H](Nc1c(-c2c(F)cc(C#CCN(C)C)cc2F)c(Cl)nc2ncnn12)C(C)(C)C [Compound 55, (R)-5-Chloro-6-(4-(3-(dimethylamino)prop-1-yn-1-yl)-2,6-difluorophenyl)-N-(3,3-dimethylbutan-2-yl)-[1,2,4]triazolo[1,5-a]pyrimidin-7-amine] | 0.45 | 1.43 | 1.36 | 4.32 | 0.45 fold-change | 1.36 ± 0.08 | 1.43 fold-change | 4.32 ± 0.28 | 1 | 0.84 | 1 ± 0.05 | 0.87 ± 0.01
CN(C)CCCOc1cc(F)c(-c2c(Cl)nc3ncnn3c2NCC2CCC2)c(F)c1 [Compound 30, 5-Chloro-N-(cyclobutylmethyl)-6-(4-(3-(dimethylamino)propoxy)-2,6-difluorophenyl)-[1,2,4]triazolo[1,5-a]pyrimidin-7-amine] | 0.61 | 0.15 | 1.49 | 0.37 | 0.61 fold-change | 1.49 ± 0.18 | 0.15 fold-change | 0.37 ± 0.12 | 0.8 | 0.93 | 0.8 ± 0.03 | 0.93 ± 0.05
C[C@H](Nc1c(-c2c(F)cc(C#CCCO)cc2F)c(Cl)nc2ncnn12)C(F)(F)F [Compound 42, (S)-4-(4-(5-Chloro-7-((1,1,1-trifluoropropan-2-yl)amino)-[1,2,4]triazolo[1,5-a]pyrimidin-6-yl)-3,5-difluorophenyl)but-3-yn-1-ol] | 0.23 | 0.92 | 1.62 | 6.4 | 0.23 fold-change | 1.62 ± 0.05 | 0.92 fold-change | 6.4 ± 0.32 | 0.88 | 0.69 | 0.88 ± 0.01 | 0.69 ± 0.02
CN(C)CCCOc1cc(F)c(-c2c(Cl)nc3ncnn3c2NCC2(C)CC2)c(F)c1 [Compound 28, 5-Chloro-6-(4-(3-(dimethylamino)propoxy)-2,6-difluorophenyl)-N-((1-methylcyclopropyl)methyl)-[1,2,4]triazolo[1,5-a]pyrimidin-7-amine] | 0.53 | 0.09 | 2.81 | 0.49 | 0.53 fold-change | 2.81 ± 0.35 | 0.09 fold-change | 0.49 ± 0.03 | 0.84 | 1.1 | 0.84 ± 0.12 | 1.1 ± 0.2
C[C@H](Nc1c(-c2c(F)cc(F)cc2F)c(Cl)nc2ncnn12)C1CC1 [Compound 16, (S)-5-Chloro-N-(1-cyclopropylethyl)-6-(2,4,6-trifluorophenyl)-[1,2,4]triazolo[1,5-a]pyrimidin-7-amine] | 0.10 | 0.15 | 0.96 | 1.56 | 0.10 fold-change | 0.96 ± 0.06 | 0.15 fold-change | 1.56 ± 0.06 | 0.95 | 0.97 | 0.95 ± 0.02 | 0.97 ± 0.02
CN(C)CCCOc1cc(F)c(-c2c(Cl)nc3ncnn3c2NCC2(C(F)(F)F)CC2)c(F)c1 [Compound 29, 5-Chloro-6-(4-(3-(dimethylamino)propoxy)-2,6-difluorophenyl)-N-((1-(trifluoromethyl)cyclopropyl)methyl)-[1,2,4]triazolo[1,5-a]pyrimidin-7-amine] | 0.63 | 0.14 | 3.75 | 0.81 | 0.63 fold-change | 3.75 ± 0.13 | 0.14 fold-change | 0.81 ± 0.09 | 0.82 | 1.24 | 0.82 ± 0.01 | 1.24 ± 0.13
CC(C)[C@@H](C)Nc1c(-c2c(F)cc(C#CCN(C)C)cc2F)c(Cl)nc2ncnn12 [Compound 47, (R)-5-Chloro-6-(4-(3-(dimethylamino)prop-1-yn-1-yl)-2,6-difluorophenyl)-N-(3-methylbutan-2-yl)-[1,2,4]triazolo[1,5-a]pyrimidin-7-amine] | 0.40 | 1.4 | 2.21 | 7.7 | 0.40 fold-change | 2.21 ± 0.6 | 1.40 fold-change | 7.68 ± 0.85 | 0.98 | 1.03 | 0.98 ± 0.04 | 1.03 ± 0.04
